From ChEMBL document CHEMBL4130368, “Thienopyrimidine derivatives exert their anticancer efficacy via apoptosis induction, oxidative stress and mitotic catastrophe” (Eur J Med Chem, 2017)

Key:
CHO = test: Cytotoxicity against CHO cells assessed as reduction in cell survival after 72 hrs by MTT assay; format: ADME, cell-based; details: Cricetulus griseus
HCT-116 = test: Antiproliferative activity against human HCT116 cells after 72 hrs by MTT assay; format: functional, cell-based; details: HCT-116, 72 h
A2780 = test: Antiproliferative activity against human A2780 cells after 72 hrs by MTT assay; format: functional, cell-based; details: A2780, 72 h
HCT-15 = test: Antiproliferative activity against human HCT15 cells after 72 hrs by MTT assay; format: functional, cell-based; details: HCT-15, 72 h
[1] = Antiproliferative activity against human GBM10 cells after 72 hrs by MTT assay; format: functional, cell-based; details: GBM10, 72 h
LN-229 = test: Antiproliferative activity against human LN229 cells after 72 hrs by MTT assay; format: functional, cell-based; details: LN-229, 72 h
PC-3 = test: Antiproliferative activity against human PC3 cells after 72 hrs by MTT assay; format: functional, cell-based; details: PC-3, 72 h
KB = test: Antiproliferative activity against human KB cells by MTT assay; format: functional, cell-based
A549 = test: Antiproliferative activity against human A549 cells after 24 hrs by MTT assay; format: functional, cell-based; details: A549, 24 h
NCI-H460 = test: Antiproliferative activity against human NCI-H460 cells after 24 hrs by MTT assay; format: functional, cell-based; details: NCI-H460, 24 h
U-251 = test: Antiproliferative activity against human U251 cells after 24 hrs by MTT assay; format: functional, cell-based; details: U-251, 24 h
HepG2 = test: Antiproliferative activity against human HepG2 cells after 72 hrs by MTT assay; format: functional, cell-based; details: HepG2, 72 h

SMILES	IC50 (HCT-116) [µM]	IC50 (A2780) [µM]	IC50 (HCT-15) [µM]	IC50 (PC-3) [µM]	IC50 (KB) [µM]	IC50 (A549) [µM]	IC50 (NCI-H460) [µM]	IC50 (U-251) [µM]	IC50 (HepG2) [µM]	IC50 (CHO) [µM]	IC50 [1] [µM]	IC50 (LN-229) [µM]
COc1cccc(-c2nc3sc4c(c3c(=O)[nH]2)CCCC4)c1	> 100	9.6	> 100							> 100	> 100	> 100
O=c1[nH]c(-c2ccc(Cl)cc2Cl)nc2sc3c(c12)CCCC3	77.1	28.7	90.9							> 100	99.5	89.6
CCCCOc1nc2sc3c(c2c(=O)n1Cc1ccccc1)CCCC3					19							
Nc1nc(NNC(=O)c2ccncc2)nc2sc3c(c12)CCCC3						18.9	7.7	13.3				
O=[N+]([O-])c1ccc(-c2nc(O)c3c4c(sc3n2)CCCC4)cc1	71.1	> 100	65.6							> 100	51.7	44.2
N#Cc1ccc(-c2nc3sc4c(c3c(=O)[nH]2)CCCC4)cc1	> 100	> 100	> 100							> 100	> 100	> 100
Cc1ccc(-c2nc(O)c3c4c(sc3n2)CCCC4)cc1	> 100	86.8	> 100							> 100	69.9	99.1
O=c1c2c3c(sc2ncn1Cc1ccc(Br)cc1)CCCC3									14.9			

The next lines start with results.

IC50 (HCT-116) [µM]	IC50 (A2780) [µM]	IC50 (HCT-15) [µM]	IC50 (PC-3) [µM]	IC50 (KB) [µM]	IC50 (A549) [µM]	IC50 (NCI-H460) [µM]	IC50 (U-251) [µM]	IC50 (HepG2) [µM]	SMILES	IC50 (CHO) [µM]	IC50 [1] [µM]	IC50 (LN-229) [µM]
2.8	91.8	1.9							O=c1[nH]c(-c2cccc([N+](=O)[O-])c2)nc2sc3c(c12)CCCC3	> 100	12.6	8.3
		5.33	5.33						O=C(CSc1nc2sc3c(c2c(=O)n1Cc1ccccc1)CCCC3)NNC(=S)Nc1ccccc1			
19.6	1.9	11							COc1ccc(-c2nc(O)c3c4c(sc3n2)CCCC4)cc1OC	> 100	12.5	14.5
9.1	> 100	8.6							O=c1[nH]c(-c2ccc(F)cc2)nc2sc3c(c12)CCCC3	> 100	14.5	16.9
34.2	> 100	32.8							COc1cccc(-c2nc3sc4c(c3c(=O)[nH]2)CCCC4)c1O	> 100	59.4	49.3
8.3	> 100	4.8							Oc1nc(-c2ccccc2)nc2sc3c(c12)CCCC3	> 100	12	18.3
22.3	7.3	26.3							COc1cc(OC)cc(-c2nc(O)c3c4c(sc3n2)CCCC4)c1	> 100	41.9	48.1
33.8	> 100	19.2							Oc1nc(-c2ccc(Cl)cc2)nc2sc3c(c12)CCCC3	> 100	33.2	33.8
